The values below are quoted from earlier work in patent publication US9452147B2, “Lipolytic methods” (Neothetics, Inc., priority 2005, dated 2016).

The conditions of data set [1]: relative to albuterol 5, a short acting hydrophilic beta agonist.
Data set [2] relates to thigh circumference in women. The settings on record: subcutaneous injections three to five times per week in multiple locations over the thighs.

Turning to `OCc1cc(C(O)CNCCCCCCOCCCCc2ccccc2)ccc1O` (racemic) [salmeterol 1, ±2-(hydroxymethyl)-4-[1-hydroxy-2-[6-(4-phenylbutoxyl)hexylamino]ethyl]-phenol], the “times more lipophilic than albuterol 5” value in data set [1] is reported as “at least 10,000 times”. On to `CC(C)NCC(O)c1ccc(O)c(O)c1` (stereo not drawn) [isoproterenol], for which the “thigh circumference in women” value in data set [2] is listed as “reduce the thigh circumference”. Take `COC(=O)[C@@H]1[C@H]2C[C@H]3c4[nH]c5ccccc5c4CCN3C[C@@H]2CC[C@@H]1O` [yohimbine]: the “thigh circumference in women” value in data set [2] is given as “reduce the thigh circumference”.
